Test results from US5567692A, “9-[(substituted glycyl) amido)]-6-demethyl-6-deoxytetracyclines” (priority 1995, dated 1996).
Structures can show the parent of a compound that is named as a salt. Where two headings read alike, the source gives them in different places.

Tests used:
E. coli J3272 Tet D = test: microbe, parasite or virus in culture; format: cell-based; details: Escherichia coli, J3272TETD, 18 h
S. aureus IVES 1983 = test: MIC, agar dilution; format: cell-based; details: Staphylococcus aureus, IVES1983, 18 h
E. coli #311 (MP) = test: MIC, agar dilution; format: cell-based; details: Escherichia coli, 18 h
E. coli UBMS 90-4 Tet M = test: microbe, parasite or virus in culture; format: cell-based; details: Escherichia coli, UBMS904TETM, 18 h
E. coli PRP1 Tet A = test: microbe, parasite or virus in culture; format: cell-based; details: Escherichia coli, PRP1TETA, 18 h
S. marcescens FPOR 8733 = test: MIC, agar dilution; format: cell-based; details: Serratia marcescens, FPOR8733, 18 h
[1] = tested on: Staphylococcus aureus strain Smith (tetracycline sensitive); test: Acute lethal infection in mice, S. aureus Smith; format: in vivo; details: for ED50: Staphylococcus aureus, 168 h, mice, S. aureus Smith (Sens), 7 day survival, read-out: ED50; for in vivo activity (in words): tested intravenously against the minocycline sensitive organism S. aureus Smith
S. aureus NEMC 8769 = test: MIC, agar dilution; format: cell-based
[2] = tested on: S. aureus UBMS 88-5 Tet M; test: microbe, parasite or virus in culture; format: cell-based; details: Staphylococcus aureus, UBMS885TETM, 18 h
[3] = tested on: S. hemolyticus AVHAH 88-3; test: MIC, agar dilution; format: cell-based; details: Streptococcus pyogenes, AVHAH883, 18 h
[4] = tested on: Ps. aeruginosa ATCC 27853; test: MIC, agar dilution; format: cell-based; details: Pseudomonas aeruginosa, ATCC27853, 18 h
[5] = tested on: E. coli MC 4100 TNIOC Tet B; test: microbe, parasite or virus in culture; format: cell-based; details: Escherichia coli, 18 h
[6] = tested on: E. coli MC 4100 Tet sens.; test: MIC, agar dilution; format: cell-based; details: Escherichia coli, 18 h
[7] = tested on: E. coli UBMS 89-2 Tet sens.; test: MIC, agar dilution; format: cell-based; details: Escherichia coli, 18 h
S. aureus ATCC 29213 = test: MIC, agar dilution; format: cell-based; details: Staphylococcus aureus, ATCC29213, 18 h, S. aureus ATCC 29213
S. aureus IVES 2943 = test: MIC, agar dilution; format: cell-based; details: Staphylococcus aureus, IVES2943, 18 h
[8] = tested on: S. aureus UBMS 90-1 Tet M; test: microbe, parasite or virus in culture; format: cell-based; details: Staphylococcus aureus, UBMS901TETM, 18 h
Enterococcus 12201 = test: MIC, agar dilution; format: cell-based; details: Enterococcus, 12201, 18 h
E. coli UBMS 89-1 Tet M = test: microbe, parasite or virus in culture; format: cell-based; details: Escherichia coli, UBMS891TETM, 18 h
[9] = tested on: X. maltophilia NEMC 87210; test: MIC, agar dilution; format: cell-based; details: Stenotrophomonas maltophilia, NEMC87210, 18 h
S. aureus UBMS 90-3 = test: MIC, agar dilution; format: cell-based; details: Staphylococcus aureus, UBMS903, 18 h
E. coli ATCC 25922 = test: MIC, agar dilution; format: cell-based; details: Escherichia coli, ATCC25922, 18 h
E. coli J2175 = test: MIC, agar dilution; format: cell-based; details: Escherichia coli, 18 h, read-out: MIC
E. coli UBMS 88-1 Tet B = test: microbe, parasite or virus in culture; format: cell-based; details: Escherichia coli, UBMS881TETB, 18 h
E. coli J3272 Tet C = test: microbe, parasite or virus in culture; format: cell-based; details: Escherichia coli, J3272TETC, 18 h
E. coli UBMS 90-5 = test: microbe, parasite or virus in culture; format: cell-based; details: Escherichia coli, UBMS905, 18 h, E. coli UBMS 90-5; read-out: MIC
S. aureus UBMS 88-4 = test: MIC, agar dilution; format: cell-based; details: Staphylococcus aureus, UBMS884, 18 h
E. coli BAJ9003 IMP MUT = test: microbe, parasite or virus in culture; format: cell-based; details: Escherichia coli, BAJ9003IMPMUT, 18 h
[10] = tested on: S. aureus UBMS 88-7 Tet K; test: microbe, parasite or virus in culture; format: cell-based; details: Staphylococcus aureus, UBMS887TETK, 18 h
S. aureus SMITH (MP) = test: MIC, agar dilution; format: cell-based; details: Staphylococcus aureus, 18 h
S. aureus ROSE (MP) = test: MIC, agar dilution; format: cell-based; details: Staphylococcus aureus, 18 h
[11] = tested on: S. aureus UBMS 90-2 Tet M; test: microbe, parasite or virus in culture; format: cell-based; details: Staphylococcus aureus, UBMS902TETM, 18 h
E. faecalis ATCC 29212 = test: MIC, agar dilution; format: cell-based; details: Enterococcus faecalis, ATCC29212, 18 h
[12] = Ps. aeruginosa ATCC 27853, read-out: MIC

SMILES	MIC (E. coli J3272 Tet D) [µg/mL]	MIC (S. aureus IVES 1983) [µg/mL]	MIC (E. coli #311 (MP)) [µg/mL]	MIC (E. coli UBMS 90-4 Tet M) [µg/mL]	MIC (E. coli PRP1 Tet A) [µg/mL]	MIC [2] [µg/mL]	MIC [3] [µg/mL]	MIC [5] [µg/mL]	MIC [6] [µg/mL]	MIC [7] [µg/mL]	MIC [8] [µg/mL]	MIC (E. coli UBMS 89-1 Tet M) [µg/mL]	MIC (S. aureus UBMS 90-3) [µg/mL]	MIC (E. coli J2175) [µg/mL]	MIC (E. coli UBMS 88-1 Tet B) [µg/mL]	MIC (E. coli J3272 Tet C) [µg/mL]	MIC (E. coli UBMS 90-5) [µg/mL]	MIC (S. aureus UBMS 88-4) [µg/mL]	MIC (E. coli BAJ9003 IMP MUT) [µg/mL]	MIC [10] [µg/mL]	further results
CN(C)[C@@H]1C(O)=C(C(N)=O)C(=O)[C@@]2(O)C(O)=C3C(=O)c4c(ccc(NC(=O)CNCC5CC5)c4O)CC3CC12 (stereo partly drawn) [Q, [4S-(4alpha,12aalpha)]-9-[[[(Cyclopropylmethyl)amino]acetyl]amino]-4-(dimethylamino)-1,4,4a,5,5a,6,11,12a-octahydro-3,10,12,12a-tetrahydroxy-1,11-dioxo-2-naphthacenecarboxamide dihydrochloride]	0.25	4	1	0.25	2	0.5	4	1	0.25	1	0.5	0.5	0.5	1	0.5	0.5	0.5	0.5	0.25	8	MIC (S. marcescens FPOR 8733; read-out: MIC): 8 µg/mL; ED50 ([1]; po, Oral): > 16 mg/kg; in vivo activity (in words) [1]: very good in vivo activity; MIC (S. aureus NEMC 8769; Staphylococcus aureus, NEMC8769, 18 h): 0.5 µg/mL; MIC [4]: 16 µg/mL; MIC (S. aureus ATCC 29213): 0.5 µg/mL; MIC (S. aureus IVES 2943): 8 µg/mL; MIC (Enterococcus 12201): 0.5 µg/mL; MIC [9]: 4 µg/mL; MIC (E. coli ATCC 25922): 0.5 µg/mL; MIC (S. aureus SMITH (MP)): 0.5 µg/mL; MIC (S. aureus ROSE (MP)): 16 µg/mL; MIC [11]: 0.5 µg/mL; MIC (E. faecalis ATCC 29212): 0.25 µg/mL
CCCCCCNCC(=O)Nc1ccc2c(c1O)C(=O)C1=C(O)[C@]3(O)C(=O)C(C(N)=O)=C(O)[C@@H](N(C)C)C3CC1C2 (stereo partly drawn) [G, [4S-(4alpha,12aalpha)]-4-(Dimethylamino)-9-[[(hexylamino)acetyl]amino]-1,4,4a,5,5a,6,11,12a-octahydro-3,10,12,12a-tetrahydroxy-1,11-dioxo-2-naphthacenecarboxamide dihydrochloride]	0.5	1	1	0.5	1	0.5	2	1	0.12	1	1	0.25	0.25	1	1	1	1	0.25	0.12	1	MIC (S. marcescens FPOR 8733; read-out: MIC): 8 µg/mL; ED50 ([1]; iv, Intraveneous): > 4 mg/kg; ED50 ([1]; po, Oral): > 16 mg/kg; in vivo activity (in words) [1]: very good in vivo activity; MIC (S. aureus NEMC 8769; Staphylococcus aureus, NEMC8769, 18 h, read-out: MIC): 0.12 µg/mL; MIC [4, 12]: 32 µg/mL; MIC (S. aureus ATCC 29213): 0.5 µg/mL; MIC (S. aureus IVES 2943): 2 µg/mL; MIC (Enterococcus 12201): 0.25 µg/mL; MIC [9]: 1 µg/mL; MIC (E. coli ATCC 25922): 1 µg/mL; MIC (S. aureus SMITH (MP)): 0.25 µg/mL; MIC (S. aureus ROSE (MP); read-out: MIC): 4 µg/mL; MIC [11]: 0.25 µg/mL; MIC (E. faecalis ATCC 29212; E. faecalis ATCC 29212, read-out: MIC): 0.12 µg/mL
CC1CCN(CC(=O)Nc2ccc3c(c2O)C(=O)C2=C(O)[C@]4(O)C(=O)C(C(N)=O)=C(O)[C@@H](N(C)C)C4CC2C3)CC1 (stereo partly drawn) [A, [7S-(7alpha,10aalpha)]-N-(9-(Aminocarbonyl)-7-(dimethylamino)-5,5a,6,6a,7,10,10a,12-octahydro-1,8,10a,11-tetrahydroxy-10,12-dioxo-2-naphthacenyl]-4-methyl-1-piperidineacetamide dihydrochloride]	0.25	1	0.25	0.5	1	0.5	2	1	0.25	0.5	1	0.25	0.5	0.5	1	1	0.5	0.5	0.12	1	MIC (S. marcescens FPOR 8733): 8 µg/mL; MIC (S. aureus NEMC 8769): no growth; MIC [4, 12]: > 32 µg/mL; MIC (S. aureus ATCC 29213; read-out: MIC): 0.5 µg/mL; MIC (S. aureus IVES 2943; S. aureus IVES 2943, read-out: MIC): 0.5 µg/mL; MIC (Enterococcus 12201; Enterococcus 12201, read-out: MIC): 0.5 µg/mL; MIC ([9]; X. maltophilia NEMC 87210, read-out: MIC): 0.5 µg/mL; MIC (E. coli ATCC 25922; read-out: MIC): 0.25 µg/mL; MIC (S. aureus SMITH (MP); S. aureus SMITH (MP), read-out: MIC): 0.5 µg/mL; MIC (S. aureus ROSE (MP); read-out: MIC): 2 µg/mL; MIC [11]: 0.5 µg/mL; MIC (E. faecalis ATCC 29212): 0.25 µg/mL
